The source of these data is US4834964A, “Use of charged nitroxides as NMR image enhancing agents for CSF” (M.R.I., Inc., priority 1986, dated 1989).

A short description of series [1]: T1 relaxation time of CSF after injection of nitroxide into spinal cavity of dogs. More on the design: T1 RELAXATION TIME: unit not given here. The settings on record: dog; for T1 RELAXATION TIME: average of 4 studies, time 0: 3.11. It counts as in vivo. As to the method:
(§1) Dogs (data is the average of 4 independent studies) under general anesthetic were injected with 2 ml of a 10 mM stock solution of 4-(N,N,N-dimethylethylamino)-2,2,6,6-tetramethylpiperidin-oxyl iodide in saline (0.9%) into the spinal cavity (3 cm below the head). At defined times, samples of CSF were removed from a catheter inserted at the point of injection. The samples were analyzed for nitroxide concentration and relaxation times. (A separate experiment determined that charged nitroxides are not bioreduced by CSF fluid. Therefore, the diminution in nitroxide concentration is attributed to active transport from the spinal cavity.) The data obtained are set forth in the table below.

Series [2] can be described thus: NMR image enhancement with nitroxide (cranium and spinal column). The class given is in vivo. As to conditions: dog, 1.5 Tesla whole-body imager; 7, 21, 40, 60 and 90 min post injection, versus control images. The text has this: An anesthetized dog (ca. 15 kg) as described in Example 1, in a prone position with front and hind legs extended and the head supported by a pillow in the upright position, was inserted into a small animal coil of a whole-body NMR imager (General Electric 1.5 Teslar instrument). Images of two cross-sections of the cranium and four cross-sections of the spinal column at various points below the point of injection were obtained as controls. The dog was removed from the instrument, injected with the NMR image-enhancing agent as described in Example 1 and the above-described images again obtained at 7, 21, 40, 60 and 90 minutes post injection. […] Because the loss in image enhancement is due to CSF turnover rather than decomposition of the nitroxide or passive diffusion thereof across the spinal cord, this procedure can be employed to study turnover of the CSF.

Series [3] is described as follows: Stability/pharmacokinetics of nitroxide in the CSF of dogs (nitroxide concentration). It counts as in vivo. As to conditions: 20 umol/animal, dog, average of 4 studies. As to the method: as §1
The conditions of series [4]: U.S. Pat. No. 3,702,831; cited from earlier work.
Setting [5] is: 5 min after 2 ml of 10 mM into spinal cavity.
Where [6] appears, read: 10 min after 2 ml of 10 mM into spinal cavity.
The mark [7] stands for this setting: 20 min after 2 ml of 10 mM into spinal cavity.
Where [8] appears, read: 30 min after 2 ml of 10 mM into spinal cavity.
The mark [9] stands for this setting: 45 min after 2 ml of 10 mM into spinal cavity.
The mark [10] stands for this setting: 60 min after 2 ml of 10 mM into spinal cavity.
Setting [11] is: 75 min after 2 ml of 10 mM into spinal cavity.
The mark [12] stands for this setting: 90 min after 2 ml of 10 mM into spinal cavity.
Where [13] appears, read: 150 min after 2 ml of 10 mM into spinal cavity.

As for `CC[N+](C)(C)C1CC(C)(C)N([O])C(C)(C)C1` [4-(N,N,N-dimethylethylamino)-2,2,6,6-tetramethylpiperidinoxyl iodide], the “T1 RELAXATION TIME” value came to 0.904 in series [1] (setting [5]); 1.147 in series [1] (setting [6]); 1.751 in series [1] (setting [7]); 1.942 in series [1] (setting [8]); 2.439 in series [1] (setting [9]); 2.533 in series [1] (setting [10]). The “T1 RELAXATION TIME” value in series [1] (setting [11]) is reported as 2.546; in series [1] (setting [12]), 2.782; in series [1] (setting [13]), 2.958. The “T1 relaxation time, sufficiency for enhanced NMR image” value in series [1] (150 min after injection (footnote)) is listed as “insufficient to obtain an enhanced NMR image”. Moreover, in series [2], the “NMR image of CSF in spinal column” value is “the CSF fluid in the spinal column was clearly imaged and produced a clear anatomical profile of the spinal column in each image, including the cranial sections and all of the 90 minute images”. The molecule further yielded a concentration at 5 min in series [3] (setting [5]) of 3800 µM. The molecule further yielded a concentration at 10 min in series [3] (setting [6]) of 3300 µM. Moreover, in series [3] (setting [7]), the concentration at 20 min is 2200 µM. In addition, the concentration at 0.5 h in series [3] (setting [8]) was determined as 2000 µM. Moreover, in series [3] (setting [9]), the concentration at 0.75 h was determined as 1000 µM. The molecule further returned a concentration at 1 h in series [3] (setting [10]) of 720 µM. This molecule yielded a concentration at 1.25 h in series [3] (setting [11]) of 450 µM. For the same molecule, the concentration at 1.5 h in series [3] (setting [12]) stood at 220 µM. Further, the concentration at 1.75 h in series [3] (105 min after 2 ml of 10 mM into spinal cavity) is 70 µM. For the same molecule, the concentration at 2.5 h in series [3] (setting [13]) worked out at 30 µM.
`CC(C)(C)N([O])C(C)(C)C` [di-tert-butylnitroxide]: the in vivo elimination entry in series [4] is on record as “rapidly eliminated in vivo”.
